Results reported in PubChem BioAssay AID330 (DTP/NCI, 2004).
Where “and” joins values, the source holds several entries; their conditions need not be identical. Equal entries are not always repeated. Toxic doses and inconclusive results are not listed. How the source made its calls: active means survival T/C of 150% or more; inactive means T/C below 125% in these data. Peptide text beside a SMILES is read from it.

System: P388 leukemia ip, CD2F1 mice, survival T/C
Experiment: NCI In Vivo Anticancer Drug Screen. Data for tumor model P388 Leukemia (intraperitoneal) in CD2F1 (CDF1) mice
Conditions: endpoint: median survival time, higher = longer survival
In short: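 Mice carrying the transplanted tumor received test compound or vehicle. Survival was recorded in each group, and the value is the treated-group measurement divided by that of the vehicle-treated control group.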

[1] = dose: 25.0 mg/kg/injection, schedule: Q01DX001 (ip), vehicle: Klucel (hydroxypropylcellulose) (HPC)
[2] = dose: 100.0 mg/kg/injection, schedule: Q01DX001 (ip), vehicle: saline with Tween-80
[3] = dose: 100.0 mg/kg/injection, schedule: Q04DX003 (ip), vehicle: saline
[4] = dose: 200.0 mg/kg/injection, schedule: Q04DX003 (ip), vehicle: saline
[5] = dose: 12.5 mg/kg/injection, schedule: Q01DX009 (ip), vehicle: Klucel (hydroxypropylcellulose) (HPC)
[6] = dose: 25.0 mg/kg/injection, schedule: Q01DX009 (ip), vehicle: Klucel (hydroxypropylcellulose) (HPC)
[7] = dose: 50.0 mg/kg/injection, schedule: Q01DX009 (ip), vehicle: Klucel (hydroxypropylcellulose) (HPC)
[8] = dose: 100.0 mg/kg/injection, schedule: Q01DX009 (ip), vehicle: Klucel (hydroxypropylcellulose) (HPC)
[9] = dose: 50.0 mg/kg/injection, schedule: Q01DX005 (ip), vehicle: saline with Tween-80
[10] = dose: 100.0 mg/kg/injection, schedule: Q01DX005 (ip), vehicle: saline with Tween-80
[11] = dose: 100.0 mg/kg/injection, schedule: Q01DX001 (ip), vehicle: Klucel (hydroxypropylcellulose) (HPC)
[12] = dose: 50.0 mg/kg/injection, schedule: Q01DX005 (ip), vehicle: Klucel (hydroxypropylcellulose) (HPC)
[13] = dose: 100.0 mg/kg/injection, schedule: Q01DX005 (ip), vehicle: Klucel (hydroxypropylcellulose) (HPC)
[14] = dose: 200.0 mg/kg/injection, schedule: Q01DX005 (ip), vehicle: Klucel (hydroxypropylcellulose) (HPC)
[15] = dose: 50.0 mg/kg/injection, schedule: Q01DX005 (ip), vehicle: saline
[16] = dose: 100.0 mg/kg/injection, schedule: Q01DX005 (ip), vehicle: saline
[17] = dose: 200.0 mg/kg/injection, schedule: Q01DX005 (ip), vehicle: saline
[18] = dose: 50.0 mg/kg/injection, schedule: Q01DX009 (ip), vehicle: saline with Tween-80
[19] = dose: 100.0 mg/kg/injection, schedule: Q01DX009 (ip), vehicle: saline with Tween-80
[20] = dose: 25.0 mg/kg/injection, schedule: Q01DX005 (ip), vehicle: saline

Measured: T/C

O=C(O)CNc1ccccc1.[Cu+2]
inactive: dose: 6.25 mg/kg/injection, schedule: Q01DX001 (ip), vehicle: Klucel (hydroxypropylcellulose) (HPC) 98 % of control | dose: 12.5 mg/kg/injection, schedule: Q01DX001 (ip), vehicle: Klucel (hydroxypropylcellulose) (HPC) 98 % of control | [1] 101 % of control and 112 % of control

c1ccc2c(c1)NCCOCCNc1ccccc1OCCNCCO2
inactive: dose: 25.0 mg/kg/injection, schedule: Q01DX001 (ip), vehicle: saline with Tween-80 100 % of control | dose: 50.0 mg/kg/injection, schedule: Q01DX001 (ip), vehicle: saline with Tween-80 96 % of control | [2] 89 % of control and 92 % of control

OCC1OC(c2ccc(O)cc2O)C(O)C1O (stereo unspecified)
inactive: dose: 50.0 mg/kg/injection, schedule: Q01DX009 (ip), vehicle: saline 102 % of control | dose: 100.0 mg/kg/injection, schedule: Q01DX009 (ip), vehicle: saline 96 % of control | [3] 95 % of control | dose: 200.0 mg/kg/injection, schedule: Q01DX009 (ip), vehicle: saline 105 % of control | [4] 98 % of control | dose: 400.0 mg/kg/injection, schedule: Q04DX003 (ip), vehicle: saline 95 % of control

NS(=O)(=O)c1ccc(NC(=O)CCl)cc1
inactive: [5] 110 % of control | [6] 108 % of control and 120 % of control | [7] 110 % of control and 121 % of control | [8] 121 % of control

Cc1ccc(C)c(NC(=O)/C=N/O)c1
inactive: [9] 98 % of control | [10] 110 % of control | dose: 200.0 mg/kg/injection, schedule: Q01DX005 (ip), vehicle: saline with Tween-80 105 % of control

O=C1C(Cl)=C(Cl)C(Cl)(Cl)C(Cl)=C1Cl
inactive: [1] 99 % of control | dose: 50.0 mg/kg/injection, schedule: Q01DX001 (ip), vehicle: Klucel (hydroxypropylcellulose) (HPC) 93 % of control | [11] 93 % of control

Cc1cc(C)cc(C(N)=O)c1
inactive: [3] 96 % of control | [4] 99 % of control

CCC[N+]1(CC)CCCCC1
inactive: dose: 3.12 mg/kg/injection, schedule: Q01DX009 (ip), vehicle: saline 103 % of control | dose: 6.25 mg/kg/injection, schedule: Q01DX009 (ip), vehicle: saline 99 % of control | dose: 12.5 mg/kg/injection, schedule: Q01DX009 (ip), vehicle: saline 100 % of control

CC1(C)C2CCC(CN)C1C2 (stereo unspecified)
inactive: dose: 12.5 mg/kg/injection, schedule: Q01DX009 (ip), vehicle: other 96 % of control | dose: 25.0 mg/kg/injection, schedule: Q01DX009 (ip), vehicle: other 97 % of control | dose: 50.0 mg/kg/injection, schedule: Q01DX009 (ip), vehicle: other 100 % of control

Cc1ccc(S(=O)(=O)/C(=C/c2c(-c3ccccc3)c(-c3ccccc3)c3n2CCC3)NC=O)cc1
inactive: [2] 96 % of control | dose: 200.0 mg/kg/injection, schedule: Q01DX001 (ip), vehicle: saline with Tween-80 88 % of control | dose: 400.0 mg/kg/injection, schedule: Q01DX001 (ip), vehicle: saline with Tween-80 86 % of control

COc1cc(O)c2c(O)c3c(c4c2c1[C@]1(C4)C(C)=CCCC1(C)C)[C@H](O)[C@@]1(O)CC(=O)C(C(N)=O)=C(O)[C@@]1(O)C3=O
inactive: dose: 6.25 mg/kg/injection, schedule: Q04DX003 (ip), vehicle: saline with Tween-80 100 % of control | dose: 12.0 mg/kg/injection, schedule: Q01DX009 (ip), vehicle: saline with Tween-80 112 % of control | dose: 12.5 mg/kg/injection, schedule: Q04DX003 (ip), vehicle: saline with Tween-80 100 % of control | [6] 120 % of control and 121 % of control | dose: 25.0 mg/kg/injection, schedule: Q04DX003 (ip), vehicle: saline with Tween-80 113 % of control | [7] 111 % of control

Cn1c2c(c(=O)c3cc(O)ccc31)CC(O)C(C)(C)O2 (stereo unspecified)
inactive: [12] 102 % of control | [13] 94 % of control | [14] 86 % of control

COC1OC(CS[As](C)C)C(O)C(O)C1O (stereo unspecified)
inactive: dose: 6.25 mg/kg/injection, schedule: Q01DX009 (ip), vehicle: Klucel (hydroxypropylcellulose) (HPC) 95 % of control | [5] 100 % of control | [6] 103 % of control | [7] 106 % of control

CC(C)NCCCNC(=O)C1COc2ccccc2O1 (stereo unspecified)
inactive: [15] 94 % of control | [16] 88 % of control | [17] 90 % of control

C[Si](C)(C)CC[Si]12OCCN(C3CCCCC3O1)C1CCCCC1O2 (stereo unspecified)
inactive: [12] 94 % of control | [13] 104 % of control | [14] 105 % of control

Cc1ccc(/C=N/NC(N)=S)s1
inactive: dose: 12.5 mg/kg/injection, schedule: Q01DX009 (ip), vehicle: saline with Tween-80 100 % of control | dose: 25.0 mg/kg/injection, schedule: Q01DX009 (ip), vehicle: saline with Tween-80 108 % of control | [18] 107 % of control | [19] 106 % of control

O=C(CBr)Nc1c(Br)cc(F)cc1Br
inactive: [18] 100 % of control | [19] 92 % of control | dose: 200.0 mg/kg/injection, schedule: Q01DX009 (ip), vehicle: saline with Tween-80 100 % of control

O=S1(=O)CCCCC1
inactive: dose: 50.0 mg/kg/injection, schedule: Q04DX003 (ip), vehicle: saline 100 % of control | [3] 100 % of control | [4] 110 % of control

CSc1nc2ccc(CN3C(=O)c4ccccc4C3=O)cc2s1
inactive: [7] 88 % of control | [8] 98 % of control | dose: 200.0 mg/kg/injection, schedule: Q01DX009 (ip), vehicle: Klucel (hydroxypropylcellulose) (HPC) 91 % of control

CC(C)C(C/C(=N\Nc1ccc([N+](=O)[O-])cc1[N+](=O)[O-])C1CC1)C(=O)O (stereo unspecified)
inactive: dose: 25.0 mg/kg/injection, schedule: Q01DX005 (ip), vehicle: saline with Tween-80 105 % of control | [9] 96 % of control | [10] 89 % of control

SC1(S)CCCN(Cc2ccccc2)C1
inactive: [20] 105 % of control | [15] 108 % of control | [16] 103 % of control | [17] 105 % of control

CN(C)c1nc(N(C)C)oc(=[N+](C)C)n1
inactive: dose: 6.25 mg/kg/injection, schedule: Q01DX005 (ip), vehicle: saline 106 % of control | dose: 12.5 mg/kg/injection, schedule: Q01DX005 (ip), vehicle: saline 103 % of control | [20] 113 % of control

CCOC(CCl)(NC(C)=O)C(=O)OC (stereo unspecified)
inactive: [11] 104 % of control | dose: 200.0 mg/kg/injection, schedule: Q01DX001 (ip), vehicle: Klucel (hydroxypropylcellulose) (HPC) 100 % of control | dose: 400.0 mg/kg/injection, schedule: Q01DX001 (ip), vehicle: Klucel (hydroxypropylcellulose) (HPC) 106 % of control

CCCCCC(=O)NCC(=O)OC
inactive: [15] 100 % of control | [16] 101 % of control | [17] 100 % of control

CC(N)C(=O)NCC(=O)NC(CO)C(=O)NC(CCC(=O)O)C(=O)O (stereo unspecified) (H-AGSE-OH; configuration not given here)
inactive: dose: 9.0 mg/kg/injection, schedule: Q01DX005 (ip), vehicle: water 96 % of control | dose: 18.0 mg/kg/injection, schedule: Q01DX005 (ip), vehicle: water 102 % of control | dose: 36.0 mg/kg/injection, schedule: Q01DX005 (ip), vehicle: water 100 % of control | dose: 72.0 mg/kg/injection, schedule: Q01DX005 (ip), vehicle: water 110 % of control | dose: 144.0 mg/kg/injection, schedule: Q01DX005 (ip), vehicle: water 103 % of control

Cc1cnc(N)c(C(=O)O)n1
inactive: [12] 102 % of control | [13] 90 % of control

C=CCNC(=S)NC(c1ccc(OC)cc1)C(CC)c1ccc(OC)cc1 (stereo unspecified)
inactive: dose: 100.0 mg/kg/injection, schedule: Q04DX002 (ip), vehicle: saline with Tween-80 100 % of control | dose: 200.0 mg/kg/injection, schedule: Q04DX002 (ip), vehicle: saline with Tween-80 101 % of control | dose: 400.0 mg/kg/injection, schedule: Q04DX002 (ip), vehicle: saline with Tween-80 106 % of control
